Measurements taken from patent publication EP0099194A2, “Novel benzamides” (BEECHAM GROUP PLC, priority 1982, dated 1984).

Legend:
Format in all cases: in vivo
[1] = tested on: 5-MDMT induced symptoms; assay: Anti-5HT activity: inhibition of 5-methoxy-N,N-dimethyltryptamine induced symptoms in mice; settings: Mouse, p.o., pretreated 1 h before 10 mg/kg ip 5-methoxy-N,N-dimethyltryptamine, dose inhibiting symptoms by 50%; for ED50: po
Description: (§1) Mice (♂ CD^-1 Charles Rine) are pretreated with the compounds 10 animals/group under investigation and 1 h later one group is injected with 10 mg/kg ip 5-methoxy-N,N-dimethyltryptamioe (Sigma). The symptoms of fore- paw tapping movements, head jerks and splayed limbs are scored: 1, present; O, absent, giving a maximum score of 3/mouse or 30/group. Results are expressed as the percentage inhibition compared to the group treated with 5-methoxy-N,N-dimethyl tryptamine alone. The dose of compound inhibiting the symptoms by 50% is determined graphically.

[2] = tested on: 5-MDMT induced symptoms; assay: Anti-5HT activity: inhibition of 5-MDMT induced symptoms in rats; settings: Rat; for ED50: po
Description: [The procedure below names another organism; the source lists this organism under the same test.] as §1

[3] = tested on: post-synaptic Dopamine (D.A.) receptors; assay: Dopamine receptor blocking activity in the CNS: inhibition of apomorphine induced climbing; settings: male CDl mice, p.o., apomorphine 1 mg/kg subcutaneous
Description: The test is based on that described by Protais, P., Constantin, J. and Schwartz J.C. (1976), Psychopharmacology, 50, 1-6.
When mice are given a dose of 1 mg/kg apomorphine and then placed in an enclosed environment, such as an inverted wire cage, they are seen to climb around the walls. This behavioural phenomenon is thought to be a consequence of the stimulation of post-synaptic Dopamine (D.A.) receptors in the nucleus accumbens. Inhibition of apomorphine induced climbing is therefore indicative of post-synaptic D.A. receptor blockade in the accumbens.
Groups of 10 male CDl mice, weighing 25-30 g were pre-treated orally with either graded doses of the test compound or vehicle, at appropriate time intervals before the subcutaneous administration of a sub-maximal dose of apomorphine (1 mg/kg). Immediately after the apomorphine injection the mice were placed in wire 'climbing cages' and each animal was scored for climbing behavour at 10 and 20 minutes post apomorphine as follows:- • Four paws on cage floor = O • Fore paws on cage wall = 1 • Four paws on cage wall = 2 […]

| Compound | ED50 [1] | ED50 [2] | also measured |
| --- | --- | --- | --- |
| COc1cc(N)c(Cl)cc1C(=O)NC1CC2CCCC(C1)N2CC(C)(C)C (stereo not drawn) [Example 4, 4-Amino-5-chloro-2-mthoxy-N-[3-β-(9-neopentyl-9-azabicyclo (3,3,1)nonyl)]benzamide] | 4.6 mg/kg | 6.2 mg/kg |  |
| COc1cc(NC(C)=O)c(Cl)cc1C(=O)N[C@@H]1C[C@H]2CC[C@@H](C1)N2CC(C)(C)C [Example 1, 4-Aoetylamino-5-chloro-2-methoxy-N-[3-β-(8-neopentyl-8-azabicyclo (3,2,1)octyl)]benzamide] | 2.4 mg/kg | 10 mg/kg | ED50 inhibition of apomorphine - induced climbing [3]: 4 mg/kg |
| COc1cc(N)c(Br)cc1C(=O)NC1CC2CCC(C1)N2CC(C)(C)C (stereo not drawn) [Example 7, 4-Amino-5-bromo-2-methoxy-N-[3-β-(8-neopentyl-8-azabicyclo (3,2,1)octyl) ]benzamide] | 4 mg/kg |  |  |
| COc1cc(N)c(Cl)cc1C(=O)NC1CC2CCC(C1)N2CC(C)(C)C (stereo not drawn) [Example 2, 4-Amino-5-chloro-2-methoxy-N-[3-β-(8-neopentyl-8-azabicyclo (3,2,1)octyl)] benzamide] | 0.2 mg/kg | 7.2 mg/kg |  |
| COc1cc(NC(C)=O)c(Cl)cc1C(=O)NC1CC2CCCC(C1)N2CC(C)(C)C (stereo not drawn) [Example 6] |  | 10 mg/kg |  |
| COc1cc(N)c(Cl)cc1C(=O)NC1CC2CCC(C1)N2CCC(C)C (stereo not drawn) [Example 5, 4-Amino-5-chloro-2-methoxy-N-[3-β-(8-isopentyl-8-azabicyclo(3,2,1)octyl)] benzamide] | 8 mg/kg |  |  |
| 4-Amino-5-chloro-2-methoxy-N-[3-β-(8-cyclopropylmethyl-8-azabicyclo (3,2,1)octyl]benzamide [Example 3] |  |  | Anti 5-HT Activity Inhibition of 5-MDMT induced symptoms ED50 [1]: ED503 mg/kg; Anti 5-HT Activity Inhibition of 5-MDMT induced symptoms ([2]; at 10 mg/kg p.o.): 56% at 10 |
